In the supplement of paper PMC11061612:

Columns and labels:
Assay in all cases: Bliss excess, mean over the matrix (fraction); higher = more synergy
A172 (Glioblastoma) = system: A172 (Glioblastoma)
Procedure, shortened: (§1)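 Cell lines in DMEM/F12 or RPMI with 10% FBS were plated in 1536-well plates, held 24 hours at 37°C, 5% CO2, then given two-drug dose matrices for 72 hours (DMSO typically 0.2%). Viability was read by CellTiter-Glo 2.0 luminescence and scaled as inhibition from 0 (vehicle wells) to 1 (blank wells). Combination Emax is the second-highest inhibition in the matrix; Bliss excess is observed combination effect minus expected EA + EB − EA·EB, EA and EB being single-agent effects.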

[1] = system: BICR78 (Oral Cavity Carcinoma)
Procedure, shortened: as §1

[2] = system: EKVX (Non-Small Cell Lung Carcinoma)
Procedure, shortened: as §1

H4 (Low Grade Glioma) = system: H4 (Low Grade Glioma)
Procedure, shortened: as §1

[3] = system: HCC-827 (Lung Adenocarcinoma)
Procedure, shortened: as §1

[4] = system: HCT-116 (Colorectal Carcinoma)
Procedure, shortened: as §1

[5] = system: JHH-6 (Hepatocellular Carcinoma)
Procedure, shortened: as §1

[6] = system: MES-SA (Other Solid Carcinomas)
Procedure, shortened: as §1

[7] = system: NOMO-1 (Acute Myeloid Leukemia)
Procedure, shortened: as §1

[8] = system: PA-TU-8902 (Pancreatic Carcinoma)
Procedure, shortened: as §1

[9] = system: RCC10RGB (Kidney Carcinoma)
Procedure, shortened: as §1

SK-MEL-1 (Melanoma) = system: SK-MEL-1 (Melanoma)
Procedure, shortened: as §1

[10] = system: SKN-3 (Head and Neck Carcinoma)
Procedure, shortened: as §1

[11] = system: SLVL (B-Cell Non-Hodgkin's Lymphoma)
Procedure, shortened: as §1

[12] = system: SNG-M (Endometrial Carcinoma)
Procedure, shortened: as §1

Saos-2 (Osteosarcoma) = system: Saos-2 (Osteosarcoma)
Procedure, shortened: as §1

[13] = system: TYK-nu (Ovarian Carcinoma)
Procedure, shortened: as §1

[14] = system: WSU-DLCL2 (B-Cell Non-Hodgkin's Lymphoma)
Procedure, shortened: as §1

[15] = system: YT (Other Blood Carcinomas)
Procedure, shortened: as §1

[16] = system: EFM-192A (Breast Carcinoma)
Procedure, shortened: as §1

SMILES	Bliss excess (A172 (Glioblastoma))	Bliss excess [1]	Bliss excess [2]	Bliss excess (H4 (Low Grade Glioma))	Bliss excess [3]	Bliss excess [4]	Bliss excess [5]	Bliss excess [6]	Bliss excess [7]	Bliss excess [8]	Bliss excess [9]	Bliss excess (SK-MEL-1 (Melanoma))	Bliss excess [10]	Bliss excess [11]	Bliss excess [12]	Bliss excess (Saos-2 (Osteosarcoma))	Bliss excess [13]	Bliss excess [14]	Bliss excess [15]	Bliss excess [16]
CN(CCO)CC[C@H](CSc1ccccc1)Nc1ccc(S(=O)(=O)NC(=O)c2ccc(N3CCC([C@@H](O)c4ccccc4-c4ccc(Cl)cc4)CC3)cc2)cc1S(=O)(=O)C(F)(F)F [AZD4320] + CCN(CCO)CCCOc1ccc2c(Nc3cc(CC(=O)Nc4cccc(F)c4)[nH]n3)ncnc2c1 [AZD2811] (first compound max 1 µM, 7x7, partner max 1 µM)	0.0322	-0.0008	-0.0476	0.0036	-0.0596	0.108	0.0044	0.0657	0.208	-0.0403	-0.0539	-0.0353	-0.0333	0.135	0.0407	0.0831	-0.0086	0.201	-0.0344	
NC1(C(=O)N[C@@H](CCO)c2ccc(Cl)cc2)CCN(c2ncnc3[nH]ccc23)CC1 [Capivasertib] + Cn1cnc2c(F)c(Nc3ccc(Br)cc3Cl)c(C(=O)NOCCO)cc21 [Selumetinib] (first compound max 10 µM, 7x7, partner max 10 µM)	-0.008	-0.0016		-0.0307	0.04	0.0512	-0.0262	-0.0017	0.0099	0.0181	-0.0305	0.0465	-0.0759	-0.0251	0.0648	0.0087	0.0219	-0.0006	-0.0041	-0.0326
Cc1nc(Nc2ncc(C(=O)Nc3c(C)cccc3Cl)s2)cc(N2CCN(CCO)CC2)n1 [Dasatinib] + CC(=O)Nc1cccc(-n2c(=O)n(C3CC3)c(=O)c3c(Nc4ccc(I)cc4F)n(C)c(=O)c(C)c32)c1 [Trametinib] (first compound max 2 µM, 7x7, partner max 1 µM)	-0.0823	-0.0401		-0.0488	-0.0114	0.0991	0.0847	-0.0311	-0.126	0.0404	-0.0719	-0.0852	0.004	-0.147	-0.0097	0.0164	0.0895	0.101	-0.0521	-0.0545
COc1cc2ncnc(Nc3ccc(F)c(Cl)c3)c2cc1OCCCN1CCOCC1 [Gefitinib] + CC(C)n1c(=O)n(C)c2cnc3cc(F)c(-c4ccc(OCCCN5CCCCC5)nc4)cc3c21 [AZD1390] (first compound max 10 µM, 7x7, partner max 0.3 µM)	-0.0554	-0.0788		-0.0806	-0.0613	-0.0453	-0.0603	-0.0458	-0.0347	-0.0693	-0.0999	0.0081	-0.0688	-0.0591	-0.109	-0.0621	-0.0851	0.0143	-0.0513	-0.0752
CS(=O)(=O)CCNCc1ccc(-c2ccc3ncnc(Nc4ccc(OCc5cccc(F)c5)c(Cl)c4)c3c2)o1 [Lapatinib] + C[C@@H](Oc1cc(-c2cnn(C3CCNCC3)c2)cnc1N)c1c(Cl)ccc(F)c1Cl [Crizotinib] (first compound max 10 µM, 7x7, partner max 10 µM)	-0.0564	0.0073		0.002	-0.038	-0.0748	-0.0262	-0.0302	-0.0755	0.0068	-0.0298	-0.0827	-0.0299	-0.0518	-0.0413	-0.0452	-0.0403	-0.0162	-0.081	0.0063
CC(=O)c1c(C)c2cnc(Nc3ccc(N4CCNCC4)cn3)nc2n(C2CCCC2)c1=O [Palbociclib] + CC1(C)CCC(CN2CCN(c3ccc(C(=O)NS(=O)(=O)c4ccc(NCC5CCOCC5)c([N+](=O)[O-])c4)c(Oc4cnc5[nH]ccc5c4)c3)CC2)=C(c2ccc(Cl)cc2)C1 [Venetoclax] (first compound max 10 µM, 7x7, partner max 1 µM)	-0.003	-0.0611		0.0013	-0.0379	-0.0285	-0.0461	0.0594	-0.0032	-0.029	-0.0012	-0.0353	-0.07	-0.0892	-0.0501	-0.0417	-0.0026	0.0277	-0.13	-0.0115
CC(=O)c1c(C)c2cnc(Nc3ccc(N4CCNCC4)cn3)nc2n(C2CCCC2)c1=O [Palbociclib] + Cc1c2c(nn1C)CSCc1cc(n(C)n1)CSc1cc(c3ccccc3c1)OCCCc1c(C(=O)O)n(C)c3c-2c(Cl)ccc13 [AZD5991] (first compound max 10 µM, 7x7, partner max 1 µM)	-0.0589	-0.0375		-0.0371	-0.0324	-0.0075	-0.0212	-0.05	-0.0915	-0.0469	-0.0083	-0.0014	-0.0428	-0.0393	-0.0233	-0.0197	-0.0289	-0.0052	0.0006	-0.119
CC(=O)c1c(C)c2cnc(Nc3ccc(N4CCNCC4)cn3)nc2n(C2CCCC2)c1=O [Palbociclib] + Cn1cnc2c(F)c(Nc3ccc(Br)cc3Cl)c(C(=O)NOCCO)cc21 [Selumetinib] (first compound max 10 µM, 7x7, partner max 10 µM)	0.0031	0.0133		0.0308	-0.0172	0.0697	0.0291	-0.0009	-0.014	0.0639	-0.0121	-0.0559	0.0345	-0.0355	-0.117	-0.0402	-0.065	-0.0194	-0.0471	-0.0289
CCc1c2c(nc3ccc(O)cc13)-c1cc3c(c(=O)n1C2)COC(=O)[C@]3(O)CC [SN-38] + O=C(c1cc(Cc2n[nH]c(=O)c3ccccc23)ccc1F)N1CCN(C(=O)C2CC2)CC1 [Olaparib] (first compound max 0.3 µM, 7x7, partner max 10 µM)	0.0639	0.0587	0.0027	0.0958	0.052	0.104	0.032		0.0544	0.086		0.0387		0.0327	0.0565	0.0247	-0.0067	0.0564	-0.0409	
C[C@@H](c1ccc2nccn2c1)n1nnc2ncc(-c3cnn(C)c3)nc21 [Savolitinib] + CC1(C)CCC(CN2CCN(c3ccc(C(=O)NS(=O)(=O)c4ccc(NCC5CCOCC5)c([N+](=O)[O-])c4)c(Oc4cnc5[nH]ccc5c4)c3)CC2)=C(c2ccc(Cl)cc2)C1 [Venetoclax] (first compound max 1 µM, 7x7, partner max 1 µM)	-0.0498	-0.0779		-0.0399	-0.0293	-0.0357	-0.0918	-0.0736	-0.0561	-0.11	-0.0768	-0.0144	-0.0543	-0.0904	-0.0421	-0.0259	-0.0478	0.113	-0.0346	-0.0484
C[C@@H](c1ccc2nccn2c1)n1nnc2ncc(-c3cnn(C)c3)nc21 [Savolitinib] + Cc1c2c(nn1C)CSCc1cc(n(C)n1)CSc1cc(c3ccccc3c1)OCCCc1c(C(=O)O)n(C)c3c-2c(Cl)ccc13 [AZD5991] (first compound max 1 µM, 7x7, partner max 1 µM)	-0.0747	-0.0214		0.0076	-0.008	-0.0593	-0.0727	-0.0465	0.0497	-0.0699	-0.0371	-0.0235	-0.0758	-0.0946	0.0124	-0.0405	-0.0393	0.0276	-0.0156	-0.0499
Cn1cnc2c(F)c(Nc3ccc(Br)cc3Cl)c(C(=O)NOCCO)cc21 [Selumetinib] + C=CCn1c(=O)c2cnc(Nc3ccc(N4CCN(C)CC4)cc3)nc2n1-c1cccc(C(C)(C)O)n1 [AZD1775] (first compound max 10 µM, partner max 1 µM)	-0.126	-0.0678		-0.0797	-0.026	-0.0286	-0.0963	-0.0289	-0.0509	0.0655	-0.0703	0.0121	0.0226	-0.0275	-0.0444	-0.0072	-0.0404	-0.0064	0.0002	-0.0509
Cn1cnc2c(F)c(Nc3ccc(Br)cc3Cl)c(C(=O)NOCCO)cc21 [Selumetinib] + CC(C)n1c(=O)n(C)c2cnc3cc(F)c(-c4ccc(OCCCN5CCCCC5)nc4)cc3c21 [AZD1390] (first compound max 10 µM, 7x7, partner max 0.3 µM)	-0.0389	0.0116		-0.0503	-0.0306	-0.0129	-0.0769	-0.0335	-0.0617	0.0043	-0.0004	-0.0378	-0.0318	-0.0557	-0.0348	-0.0577	-0.0523	-0.003	-0.03	-0.0325
Cn1cnc2c(F)c(Nc3ccc(Br)cc3Cl)c(C(=O)NOCCO)cc21 [Selumetinib] + CCN(CCO)CCCOc1ccc2c(Nc3cc(CC(=O)Nc4cccc(F)c4)[nH]n3)ncnc2c1 [AZD2811] (first compound max 10 µM, 7x7, partner max 1 µM)	-0.0731	0.0275		-0.0091	-0.0711	0.0289	-0.0305	-0.0248	0.0333	0.0087	-0.0658	0.0031	-0.0166	-0.0465	-0.0706	0.0334	-0.0169	-0.0019	-0.0336	-0.0285
Cn1cnc2c(F)c(Nc3ccc(Br)cc3Cl)c(C(=O)NOCCO)cc21 [Selumetinib] + C[C@@H]1COCCN1C2=NC(=NC(=C2)C3(CC3)[S@](=N)(=O)C)C4=C5C=CNC5=NC=C4 [AZD6738] (first compound max 10 µM, 7x7, partner max 10 µM)	-0.0564	-0.001		-0.0067	-0.0172	-0.0093	-0.0064	0.0021	-0.0299	0.0428	0.119	-0.0312	0.0257	-0.107	-0.0561	-0.0349	0.089	-0.0228	-0.064	-0.0365
